Test results: ChEMBL document CHEMBL1201862, “PubChem BioAssay data set” (2004)
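Method: 48-hour compound exposure of cells in 96-well plates, five concentrations, linear interpolation of endpoints. At the GI50, growth is halved.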 The source made the active and inactive calls. No stated cut-off is given here; in the data, active = GI50 up to about 1.1 µM and inactive = higher.

Experiments:
Test in all cases: NCI-60 cell line screen, 48 h
786-0 = system: 786-0
A498 = system: A498
A549 = system: A549
ACHN = system: ACHN
BT-549 = system: BT-549
CAKI-1 = system: CAKI-1
CCRF-CEM = system: CCRF-CEM
COLO 205 = system: COLO 205
DLD-1 = system: DLD-1
DMS-114 = system: DMS-114
DMS-273 = system: DMS-273
DU-145 = system: DU-145
EKVX = system: EKVX
HCC 2998 = system: HCC 2998
HCT-116 = system: HCT-116
HCT-15 = system: HCT-15
HL-60 = system: HL-60
HOP-18 = system: HOP-18
HOP-62 = system: HOP-62
HOP-92 = system: HOP-92
HT-29 = system: HT-29
Hs-578T = system: Hs-578T
IGROV-1 = system: IGROV-1
K562 = system: K562
KM-20L2 = system: KM-20L2
KM12 = system: KM12
LOX IMVI = system: LOX IMVI
LXFL 529 = system: LXFL 529
M14 = system: M14
M19-MEL = system: M19-MEL
MCF7 = system: MCF7
MDA-MB-231 = system: MDA-MB-231
MDA-MB-435 = system: MDA-MB-435
MDA-N = system: MDA-N
MOLT-4 = system: MOLT-4
Malme-3M = system: Malme-3M
NCI-H226 = system: NCI-H226
NCI-H23 = system: NCI-H23
NCI-H460 = system: NCI-H460
NCI-H522 = system: NCI-H522
NCI/ADR-RES = system: NCI/ADR-RES
OVCAR-3 = system: OVCAR-3
OVCAR-4 = system: OVCAR-4
OVCAR-5 = system: OVCAR-5
OVCAR-8 = system: OVCAR-8
PC-3 = system: PC-3
RPMI-8226 = system: RPMI-8226
RXF 393 = system: RXF 393
SF-268 = system: SF-268
SF-295 = system: SF-295
SF-539 = system: SF-539
SK-MEL-28 = system: SK-MEL-28
SK-MEL-2 = system: SK-MEL-2
SK-MEL-5 = system: SK-MEL-5
SK-OV-3 = system: SK-OV-3
SN12C = system: SN12C
SNB-19 = system: SNB-19
SNB-75 = system: SNB-75
SNB-78 = system: SNB-78
SR = system: SR
SW-620 = system: SW-620
T47D = system: T47D
TK-10 = system: TK-10
U-251 = system: U-251
UACC-257 = system: UACC-257
UACC-62 = system: UACC-62
UO-31 = system: UO-31
XF498 = system: XF498
RXF 631 = system: RXF 631

In the case of `COC1/C=C\C=C(/C)C(=O)NC2=CC(=O)C(NCCCl)=C(CC(C)CC(OC)C(O)C(C)/C=C(/C)C1OC(N)=O)C2=O` (centres undefined), the GI50 (786-0) is reported as 0.323 µM (active), the GI50 (A498) is reported as 0.873 µM (active) and the GI50 (A549) is reported as 0.53 µM (active). For the same compound, the GI50 (ACHN) was 0.281 µM (active), the GI50 (BT-549) was 1.25 µM (inactive) and the GI50 (CAKI-1) was 0.33 µM (active). For the same compound, the GI50 (CCRF-CEM) was 0.0993 µM (active), the GI50 (COLO 205) was < 0.0126 µM (active) and the GI50 (DLD-1) was 0.0266 µM (active). For the same compound, the GI50 (DMS-114) was 0.0296 µM (active), the GI50 (DMS-273) was 0.053 µM (active) and the GI50 (DU-145) was 569 nM (active). For the same compound, the GI50 (EKVX) was 0.592 µM (active), the GI50 (HCC 2998) was 0.101 µM (active) and the GI50 (HCT-116) was 0.0489 µM (active). For the same compound, the GI50 (HCT-15) was 0.301 µM, the GI50 (HL-60) was 0.0281 µM (active) and the GI50 (HOP-18) was 0.0308 µM (active). For the same compound, the GI50 (HOP-62) was 0.339 µM (active), the GI50 (HOP-92) was 0.384 µM (active) and the GI50 (HT-29) was 0.0158 µM (active). The GI50 (Hs-578T) was 4.89 µM (inactive), the GI50 (IGROV-1) was 0.499 µM (active) and the GI50 (K562) was 0.0236 µM (active). For the same compound, the GI50 (KM-20L2) was 0.0134 µM (active), the GI50 (KM12) was 0.125 µM (active) and the GI50 (LOX IMVI) was 0.0857 µM (active). The GI50 (LXFL 529) was 0.0298 µM (active), the GI50 (M14) was 0.0724 µM (active) and the GI50 (M19-MEL) was 0.0366 µM (active). The GI50 (MCF7) was 33.3 nM (active), the GI50 (MDA-MB-231) was 2 µM (inactive) and the GI50 (MDA-MB-435) was 52.6 nM (active). The GI50 (MDA-N) was 332 nM (active), the GI50 (MOLT-4) was 0.052 µM (active) and the GI50 (Malme-3M) was 0.0345 µM (active). For the same compound, the GI50 (NCI-H226) was 0.729 µM (active), the GI50 (NCI-H23) was 0.0715 µM (active) and the GI50 (NCI-H460) was 0.0991 µM (active). For the same compound, the GI50 (NCI-H522) was 0.0219 µM (active), the GI50 (NCI/ADR-RES) was 10.6 µM (inactive) and the GI50 (OVCAR-3) was 0.0853 µM (active). The GI50 (OVCAR-4) was 2.54 µM (inactive), the GI50 (OVCAR-5) was 0.594 µM (active) and the GI50 (OVCAR-8) was 0.115 µM (active). The GI50 (PC-3) was 656 nM (active), the GI50 (RPMI-8226) was 97.7 nM (active) and the GI50 (RXF 393) was 0.0174 µM (active). For the same compound, the GI50 (SF-268) was 0.351 µM (active), the GI50 (SF-295) was 0.743 µM (active) and the GI50 (SF-539) was 0.127 µM (active). The GI50 (SK-MEL-28) was 0.0373 µM (active), the GI50 (SK-MEL-2) was 0.147 µM (active) and the GI50 (SK-MEL-5) was 0.34 µM (active). The GI50 (SK-OV-3) was 0.117 µM (active), the GI50 (SN12C) was 0.069 µM (active) and the GI50 (SNB-19) was 0.927 µM (active). The GI50 (SNB-75) was 0.413 µM (active), the GI50 (SNB-78) was 0.655 µM (active) and the GI50 (SR) was 0.0341 µM (active). For the same compound, the GI50 (SW-620) was 0.0161 µM (active), the GI50 (T47D) was 2.36 µM (inactive) and the GI50 (TK-10) was 1.77 µM (inactive). The GI50 (U-251) was 0.11 µM (active), the GI50 (UACC-257) was 0.0363 µM (active) and the GI50 (UACC-62) was 0.0405 µM (active). The GI50 (UO-31) was 0.728 µM (active) and the GI50 (XF498) was 0.659 µM (active).
With `COc1ccccc1-c1csc(CCC(N)C(=O)O)n1` (centres undefined) the GI50 (A498) was > 100 µM (inactive), the GI50 (A549) was > 100 µM (inactive) and the GI50 (ACHN) was > 100 µM (inactive). The GI50 (CCRF-CEM) was > 100 µM (inactive), the GI50 (DMS-114) was > 100 µM (inactive) and the GI50 (DMS-273) was > 100 µM (inactive). The GI50 (EKVX) was > 100 µM (inactive), the GI50 (HCT-116) was > 100 µM (inactive) and the GI50 (HL-60) was > 100 µM (inactive). The GI50 (HOP-62) was > 100 µM (inactive), the GI50 (HOP-92) was > 100 µM (inactive) and the GI50 (HT-29) was > 100 µM (inactive). The GI50 (IGROV-1) was > 100 µM (inactive), the GI50 (KM-20L2) was > 100 µM (inactive) and the GI50 (KM12) was > 100 µM (inactive). The GI50 (M14) was > 100 µM (inactive), the GI50 (M19-MEL) was > 100 µM (inactive) and the GI50 (MOLT-4) was > 100 µM (inactive). For the same compound, the GI50 (NCI-H23) was > 100 µM (inactive), the GI50 (NCI-H460) was > 100 µM (inactive) and the GI50 (NCI-H522) was > 100 µM (inactive). For the same compound, the GI50 (OVCAR-5) was > 100 µM (inactive), the GI50 (OVCAR-8) was > 100 µM (inactive) and the GI50 (RXF 393) was > 100 µM (inactive). For the same compound, the GI50 (RXF 631) was > 100 µM (inactive), the GI50 (SF-295) was > 100 µM (inactive) and the GI50 (SK-MEL-28) was > 100 µM (inactive). The GI50 (SK-OV-3) was > 100 µM (inactive), the GI50 (SNB-19) was > 100 µM (inactive) and the GI50 (SNB-78) was > 100 µM (inactive). For the same compound, the GI50 (SR) was > 100 µM (inactive), the GI50 (TK-10) was 26.3 µM (inactive) and the GI50 (U-251) was > 100 µM (inactive). For the same compound, the GI50 (UACC-257) was > 100 µM (inactive), the GI50 (UACC-62) was > 100 µM (inactive) and the GI50 (UO-31) was > 100 µM (inactive).
`Cc1nc(Nc2ccccc2)sc1C(=O)NNc1ccc([N+](=O)[O-])cc1[N+](=O)[O-]` was tested, and the GI50 (786-0) was 27.9 µM (inactive), the GI50 (A549) was 93.5 µM (inactive) and the GI50 (ACHN) was 14.2 µM (inactive). The GI50 (CAKI-1) was 31.5 µM (inactive), the GI50 (CCRF-CEM) was 14.2 µM (inactive) and the GI50 (COLO 205) was 30.3 µM (inactive). The GI50 (DLD-1) was 25.5 µM (inactive), the GI50 (DMS-114) was 23.3 µM (inactive) and the GI50 (DMS-273) was 25.7 µM (inactive). For the same compound, the GI50 (EKVX) was 18.9 µM (inactive), the GI50 (HCC 2998) was 43.7 µM (inactive) and the GI50 (HCT-116) was 42.4 µM (inactive). The GI50 (HCT-15) was 26.2 µM, the GI50 (HL-60) was 13.9 µM (inactive) and the GI50 (HOP-18) was 21.5 µM (inactive). For the same compound, the GI50 (HOP-62) was 41.9 µM (inactive), the GI50 (HT-29) was 35 µM (inactive) and the GI50 (IGROV-1) was 45.9 µM (inactive). The GI50 (K562) was 12 µM (inactive), the GI50 (KM-20L2) was 24.7 µM (inactive) and the GI50 (KM12) was 34.4 µM (inactive). The GI50 (LOX IMVI) was 21.4 µM (inactive), the GI50 (LXFL 529) was 28.7 µM (inactive) and the GI50 (M14) was 38.9 µM (inactive). The GI50 (M19-MEL) was 36 µM (inactive), the GI50 (MOLT-4) was 24.7 µM (inactive) and the GI50 (Malme-3M) was 43.9 µM (inactive). For the same compound, the GI50 (NCI-H226) was 85.5 µM (inactive), the GI50 (NCI-H23) was 17.5 µM (inactive) and the GI50 (NCI-H460) was 31.9 µM (inactive). The GI50 (NCI-H522) was 19.5 µM (inactive), the GI50 (OVCAR-3) was 34.4 µM (inactive) and the GI50 (OVCAR-4) was 29.6 µM (inactive). For the same compound, the GI50 (OVCAR-5) was 33.7 µM (inactive), the GI50 (OVCAR-8) was 39.2 µM (inactive) and the GI50 (RXF 393) was 35.2 µM (inactive). For the same compound, the GI50 (SF-268) was 75.5 µM (inactive), the GI50 (SF-295) was 27.5 µM (inactive) and the GI50 (SF-539) was 32.7 µM (inactive). For the same compound, the GI50 (SK-MEL-28) was > 100 µM (inactive), the GI50 (SK-MEL-2) was 38.5 µM (inactive) and the GI50 (SK-MEL-5) was 25.5 µM (inactive). The GI50 (SK-OV-3) was 40.6 µM (inactive), the GI50 (SN12C) was 49 µM (inactive) and the GI50 (SNB-19) was 47.1 µM (inactive). For the same compound, the GI50 (SNB-75) was 22.7 µM (inactive), the GI50 (SNB-78) was 49.2 µM (inactive) and the GI50 (SR) was 14.7 µM (inactive). For the same compound, the GI50 (SW-620) was 39.9 µM (inactive), the GI50 (TK-10) was 52.5 µM (inactive) and the GI50 (U-251) was 38.6 µM (inactive). For the same compound, the GI50 (UACC-257) was 43.5 µM (inactive), the GI50 (UACC-62) was 5.94 µM (inactive) and the GI50 (UO-31) was 24 µM (inactive). For the same compound, the GI50 (XF498) was 24.3 µM (inactive).
